Measurements taken from US10016444B2, “Molecules for bone tissue regeneration” (ISTITUTO ORTOPEDICO RIZZOLI, priority 2014, dated 2018).

Columns and labels:
[1] = tested on: human mesenchymal stem cells (MSCs)
Experimental: Briefly, 5 ml of bone marrow aspirate was obtained from consenting patients who underwent post-traumatic orthopaedic surgery. The mononuclear cells were obtained following centrifugation in a density gradient (Ficoll-Hypaque); the cells thus obtained were washed with PBS, resuspended in a D-MEM culture medium containing 15% FBS, then counted and seeded in plastic flasks at a concentration of 2×10^6 cells/flask T150. After 1 week, the non-adherent cells were removed and the adherent cells expanded in culture up to the concentration of 5000 MSC/cm^2 and used, finally, in the culture passage p.1 for the experiments.
Cytoxicity was evaluated in the culture after 24 h and 72 h by means of the lactate dehydrogenase (LDH) method, using a commercial kit (Cytotoxicity Detection Kit, Roche, Milan). In order to avoid interferences due to components present in serum, the cells were maintained under low serum conditions (5%) in the culture medium.

[2] = tested on: human mesenchymal stem cells (MSCs); experiment: Cell viability by Toluidine Blue staining of MSCs; assay type: cell-based; settings: 72 h, 33 μM
From the text: At the end of the period of culture, moreover, the MSCs underwent staining with Toluidine Blue stain in order to evaluate the residual viability, which was then quantified by means of a spectrophotometer (Nanoquant, Tecan Group, Mannedorf, Switzerland).

[3] = tested on: human mesenchymal stem cells (MSCs); experiment: Cell proliferation of MSCs by tritiated thymidine method; assay type: cell-based; settings: 33 μM, both at 24 and 72 h after stimulation, vs unstimulated control
Experimental: Cell proliferation was measured in the MSCs by means of the tritiated thymidine method, in the presence or absence of stimuli, following a method already published in precedence (Gabusi E. et al. J Cell Physiol. 2011). […] After 48 h, tritiated thymidine (Amersham Pharmacia Biotech Italy, Milan) was added to each well at the final concentration of 2 mCi/ml and the culture further incubated for 18 h at 37° C. Lastly, the plates were aspirated through glass fibre filters and dried and the radioactivity incorporated in the cells, indicative of proliferative activity, was measured by means of a TopCount Microplate Scintillation Counter (Packard Instrument Company, Meriden, Conn.). The data are expressed as cpm (count per minute).

human osteoclasts (OCs) [4] = experiment: Differentiation of human osteoclasts (TRAP staining count); assay type: cell-based; settings: for inhibition of OC differentiation (number of TRAP-positive mature OCs): monocyte precursors with M-CSF and RANKL, 8 days, 1-33 μM
From the text: Human osteoclasts (OCs) were obtained according to a method already described and published (Grassi F. et al. J Cell Physiology 2011 April; 226(4):982-90). Briefly, the OCs were differentiated in vitro starting from monocytic precursors obtained from the peripheral blood of healthy, consenting donors; in particular, whole blood was stratified on Ficoll-Hypaque and the mononuclear cells were obtained by centrifugation. Monocytes were isolated from the latter by immunomagnetic separation of cells positive to the antigen CD11b via a MACS apparatus (Miltenyi Biotech, Calderara di Reno, Bologna). […] The number of mature OCs obtained for each condition of stimulation was then identified by means of a manual count, under a microscope, of the multinuclear cells positive to tartrate-resistant acid phosphatase (TRAP) staining.

[5] = tested on: human mesenchymal stem cells (MSCs); experiment: Mineralisation assay on MSCs (Alizarin Red); assay type: cell-based; settings: for mineralising capacity of MSCs (Alizarin Red): osteogenic conditions, dose dependence
Experimental: The evaluation of the functional capacity to deposit inorganic matrix on the part of MSC cells was evaluated with an in vitro mineralisation assay, according to an already consolidated method (Grassi F. et al. J. Tissue Eng Reg Med, 2013); MSC cells were maintained under culture for 21 days in the presence of […] of ascorbic acid, 2 mM of β-glycerophosphate and 100 nM of dexamethasone. […] Finally, the mineralised matrix was visualised by staining with Alizarin Red and quantified by spectrophotometry (Nanoquant, Tecan Group, Mannedorf, Switzerland).

human osteoclasts (OCs) [6] = settings: OCs on Biocoat Osteologic slides, qualitative evaluation
Experimental: The ability of OCs to perform a physiological function of degrading the inorganic matrix was assessed by means of the ‘Pit Assay’, in which the OCs were cultured on Biocoat Osteologic (BD Bioscience) slides according to the procedure described in detail above.

[7] = Determination of the release of H2S by amperometry; assay type: physicochemical
Experimental: Amperometry—the potential release of H2S from the tested compound was evaluated by means of the amperometric method, using an Apollo-4000 Free Radical Analyzer (WPI) connected to mini-electrodes selective for H2S. The experiments were conducted at room temperature in phosphate buffer (NaH2PO4.H2O 0.128 g, Na2HPO4.12H2O 0.597 g, NaCl 4.388 g in 500 mL H2O) at pH 7.4. When required by the experimental protocol, 4 mM L-cysteine was also dissolved in the above-described phosphate buffer, maintaining the pH a 7.4. After stabilisation of the mini-electrodes selective for H2S in 10 mL of buffer, 100 μL of the compound DM-22 solubilised in DMSO was added at the final concentration of 1 mM. The formation of H2S was recorded for 20 minutes. The same experimental procedure was also carried out in the buffer containing L-cysteine. The correspondence between the amperometric currents (recorded in pA) and the concentrations of H2S was determined by means of suitable calibration curves previously obtained using increasing concentrations of NaHS (1 μM, 3 μM, 5 μM, 10 μM) at pH 4.
The curves related to the progressive release of H2S as a function of time were analysed by means of the following equation: Ct=Cmax−(Cmax·e−k·t)
Where Ct is the concentration at time t, Cmax is the maximum concentration obtained during the recording time and the constant k is 0.693/t½, and where t½ is the time it takes to reach half of Cmax. The values of Cmax and t½ were calculated by means of software: Graph Pad Prism 4.0 and expressed as a value±standard error.

## O=C(NCCCC(O)(P(=O)(O)O)P(=O)(O)O)c1ccc(N=C=S)cc1 [DM-22]
[1]; 1-33 μM, at both 24 h and 72 h, low serum (5%)
  cytotoxicity (LDH assay): does not induce any cytotoxicity
[1]; 24 h
  cytotoxicity (LDH assay) compared to the basal level induced by serum deprivation: significant protection
[1]; 72 h, 33 μM
  cellular toxicity (LDH assay): completely absent
[2]
  cell viability (Toluidine Blue) compared to the unstimulated control: does not bring about any decrease
[3]
  proliferative activity in MSCs: does not induce any significant decrease in proliferation
Human osteoclasts (OCs) [4]; concentrations being equal
  times less effective than alendronate in suppressing OCs: 33-100 times
Human osteoclasts (OCs) [4]
  inhibition of OC differentiation (number of TRAP-positive mature OCs): statistically significant only at the highest concentration (33 μM)
[5]; 21 days, concentrations of 3.3, 10 and 33 μM
  mineralisation compared to MSCs treated with alendronate: significantly greater mineralisation
[5]; 21 days, maximum concentration of 33 μM
  degree of mineralisation compared to control MSCs: significantly greater than that of the control MSCs
[5]; 21 days
  mineralising capacity of MSCs (Alizarin Red): dose-dependent capacity to induce mineralisation
[5]; summary statement
  range of concentration in which it stimulates the anabolic function and significantly inhibits osteoclasts: 10 to 33 µM
Human osteoclasts (OCs) [6]
  inhibition of erosive capacity of OCs (pits, qualitative): only at the concentrations of 10 and 33 μM do the eroded areas disappear completely
[7]; 1 mM compound in phosphate buffer pH 7.4, room temperature, no L-cysteine
  concentration of H2S detected after 20 minutes of incubation: approximately 1.5 μM
[7]; 1 mM compound in phosphate buffer pH 7.4 in the presence of 4 mM L-cysteine
  maximum concentration of H2S detected after 20 minutes of incubation: approximately 45 μM
[7]; summary statement
  liberation of H2S: capable of liberating H2S with slow-release kinetics

## [Na+].[SH-] [NaHS, reference compound]
[5]; 21 days
  mineralising capacity of MSCs (Alizarin Red): respond as expected

## NCCCC(O)(P(=O)(O)O)P(=O)(O)O [alendronate, reference compound]
[2]
  cell viability (Toluidine Blue) compared to the unstimulated control: significant decrease in cell viability
[3]
  proliferative activity in MSCs: significant inhibition of proliferative activity
Human osteoclasts (OCs) [4]
  inhibition of OC differentiation (number of TRAP-positive mature OCs): strong capacity to inhibit OC differentiation starting from the lowest concentration used in the study (1 μM)

## [Ca+2].[Cl-].[Cl-] [calcium chloride, reference compound]
[5]; 21 days
  mineralising capacity of MSCs (Alizarin Red): respond as expected
